Measurements reported in patent US10023590B2, “Substituted pyridine compounds having herbicidal activity” (BASF SE, priority 2014, dated 2018).

Assays:
Assay type in all cases: in vivo
Zea mays = experiment: Greenhouse post-emergence herbicidal activity on crop ZEAMX (corn, maize); set-up: key: 0 = no damage/normal growth, 100 = no emergence or complete destruction
Source text: (§1) The culture containers used were plastic flowerpots containing loamy sand with approximately 3.0% of humus as the substrate. The seeds of the test plants were sown separately for each species.
(§2) For the post-emergence treatment, the test plants were first grown to a height of 3 to 15 cm, depending on the plant habit, and only then treated with the active ingredients which had been suspended or emulsified in water. For this purpose, the test plants were either sown directly and grown in the same containers, or they were first grown separately as seedlings and transplanted into the test containers a few days prior to treatment.
(§3) Depending on the species, the plants were kept at 10-25° C. or 20-35° C., respectively.
(§4) The test period extended over 2 to 4 weeks. During this time, the plants were tended, and their response to the individual treatments was evaluated.
(§5) Evaluation was carried out using a scale from 0 to 100. 100 means no emergence of the plants, or complete destruction of at least the aerial moieties, and 0 means no damage, or normal course of growth. A good herbicidal activity is given at values of at least 70 and a very good herbicidal activity is given at values of at least 85.

Amaranthus retroflexus = experiment: Greenhouse post-emergence herbicidal activity, AMARE; settings: AMARE; for pest or weed control at 250 g/ha: 0.25 kg/ha
Source text: as §1, §2, §3, §4, §5

Oryza sativa = experiment: Greenhouse post-emergence herbicidal activity on crop ORYSA (rice)
Source text: as §1, §2, §3, §4, §5

Chenopodium album = experiment: Greenhouse post-emergence herbicidal activity, CHEAL; settings: for pest or weed control at 250 g/ha: 0.25 kg/ha
Source text: as §1, §2, §3, §4, §5

Echinocloa crus-galli = experiment: Greenhouse post-emergence herbicidal activity, ECHCG; settings: Echinochloa crus-galli, ECHCG; for pest or weed control at 250 g/ha: 0.25 kg/ha
Source text: as §1, §2, §3, §4, §5

[1] = ZEAMX (corn, crop), 0.125 kg/ha, scale 0 to 100
[2] = ORYSA (rice, crop), 0.125 kg/ha, scale 0 to 100
[3] = ZEAMX (corn, crop), 0.031 kg/ha, scale 0 to 100
[4] = ZEAMX (corn, crop), 0.063 kg/ha, scale 0 to 100
[5] = ORYSA (rice, crop), 0.031 kg/ha, scale 0 to 100
[6] = ORYSA (rice, crop), 0.063 kg/ha, scale 0 to 100
[7] = ZEAMX (corn, crop), 0.25 kg/ha, scale 0 to 100
[8] = crop ZEAMX (corn, maize), application rate 0.031 kg/ha
[9] = crop ZEAMX (corn, maize), application rate 0.063 kg/ha
[10] = crop ZEAMX (corn, maize), application rate 0.125 kg/ha
[11] = crop ORYSA (rice), application rate 0.031 kg/ha
[12] = crop ORYSA (rice), application rate 0.063 kg/ha
[13] = crop ORYSA (rice), application rate 0.125 kg/ha

Structure (SMILES) | Herbicidal activity (Zea mays; [1]) | pest or weed control at 125 g/ha (Amaranthus retroflexus; 0.125 kg/ha, scale 0 to 100) | pest or weed control at 250 g/ha (Amaranthus retroflexus; scale 0 to 100) | Herbicidal activity (Oryza sativa; [2]) | pest or weed control at 125 g/ha (Chenopodium album; 0.125 kg/ha, scale 0 to 100) | pest or weed control at 250 g/ha (Chenopodium album; scale 0 to 100) | pest or weed control at 125 g/ha (Echinocloa crus-galli; 0.125 kg/ha, scale 0 to 100) | pest or weed control at 250 g/ha (Echinocloa crus-galli; scale 0 to 100) | Herbicidal activity (Zea mays; [3]) | Herbicidal activity (Zea mays; [4]) | pest or weed control at 31 g/ha (Amaranthus retroflexus; 0.031 kg/ha, scale 0 to 100) | pest or weed control at 63 g/ha (Amaranthus retroflexus; 0.063 kg/ha, scale 0 to 100) | Herbicidal activity (Oryza sativa; [5]) | pest or weed control at 31 g/ha (Chenopodium album; 0.031 kg/ha, scale 0 to 100) | pest or weed control at 63 g/ha (Chenopodium album; 0.063 kg/ha, scale 0 to 100) | pest or weed control at 31 g/ha (Echinocloa crus-galli; 0.031 kg/ha, scale 0 to 100) | pest or weed control at 63 g/ha (Echinocloa crus-galli; 0.063 kg/ha, scale 0 to 100) | Herbicidal activity (Zea mays; [8]) | Herbicidal activity (Zea mays; [9]) | Herbicidal activity (Oryza sativa; [11]) | other results
CS(=O)(=O)Nc1c(Cl)ccc(C2=C(O)c3ncccc3CS2(=O)=O)c1Cl [I-1, N-[2,6-dichloro-3-(8-hydroxy-6,6-dioxo-5H-thiopyrano[4,3-b]pyridin-7-yl)phenyl]methanesulfonamide] | 0 | 75% | 80% | 0 | 80% | 95% | 70% | 80% | – | – | – | – | – | – | – | – | – | – | – | – | Herbicidal activity (Oryza sativa; ORYSA (rice, crop), 0.25 kg/ha, scale 0 to 100): 0
CN(c1ccc(Cl)c(C2=C(O)c3ncccc3CS2(=O)=O)c1Cl)S(C)(=O)=O [I-4, N-[2,4-dichloro-3-(8-hydroxy-6,6-dioxo-5H-thiopyrano[4,3-b]pyridin-7-yl)phenyl]-N-methyl-methanesulfonamide] | 55 | 98% | 98% | 50 | 100% | 100% | 98% | 100% | 0 | 20 | 90% | 90% | 25 | 85% | 95% | 98% | 90% | – | – | – | Herbicidal activity (Oryza sativa; [6]): 35
CN(c1cccc(C2=C(O)c3ncccc3CS2(=O)=O)c1Cl)S(C)(=O)=O [I-15, N-[2-chloro-3-(8-hydroxy-6,6-dioxo-5H-thiopyrano[4,3-b]pyridin-7-yl)phenyl]-N-methyl-methanesulfonamide] | 35 | 90% | – | 20 | 98% | – | 98% | – | – | – | 75% | 85% | 0 | 90% | 98% | 85% | 90% | – | – | – | Herbicidal activity (Oryza sativa; [6]): 0
CCS(=O)(=O)N(C)c1c(Cl)ccc(C2=C(O)c3ncccc3CS2(=O)=O)c1Cl [I-18, N-[2,6-dichloro-3-(8-hydroxy-6,6-dioxo-5H-thiopyrano[4,3-b]pyridin-7-yl)phenyl]-N-methyl-ethanesulfonamide] | 25 | 100% | 100% | – | 100% | 100% | 100% | 100% | 0 | 25 | 100% | 100% | 30 | 100% | 100% | 98% | 100% | – | – | – | Herbicidal activity (Zea mays; [7]): 35
CN(c1c(Cl)ccc(C2=C(O)c3ncccc3CS2(=O)=O)c1Cl)S(=O)(=O)CC1CC1 [I-20, 1-cyclopropyl-N-[2,6-dichloro-3-(8-hydroxy-6,6-dioxo-5H-thiopyrano[4,3-b]pyridin-7-yl)phenyl]-N-methyl-methanesulfonamide] | 0 | 100% | – | – | 100% | – | 100% | – | 0 | 0 | 90% | 90% | – | 100% | 100% | 100% | 100% | – | – | – | –
CS(=O)(=O)N(c1c(Cl)ccc(C2=C(O)c3ncccc3CS2(=O)=O)c1Cl)C1CC1 [I-24, N-cyclopropyl-N-[2,6-dichloro-3-(8-hydroxy-6,6-dioxo-5H-thiopyrano[4,3-b]pyridin-7-yl)phenyl]methanesulfonamide] | 15 | 85% | 90% | 20 | 90% | 98% | 90% | 95% | 0 | 0 | 70% | 75% | 0 | 80% | 85% | 80% | 85% | – | – | – | Herbicidal activity (Zea mays; [7]): 15; Herbicidal activity (Oryza sativa; [6]): 15
CN(c1cccc(C2=C(O)c3ncccc3CS2(=O)=O)c1S(C)(=O)=O)S(C)(=O)=O [I-33, N-[3-(8-hydroxy-6,6-dioxo-5H-thiopyrano[4,3-b]pyridin-7-yl)-2-methylsulfonyl-phenyl]-N-methyl-methanesulfonamide] | – | – | – | – | – | – | – | – | – | – | – | – | – | – | – | – | – | 0 | 0 | 0 | Herbicidal activity (Zea mays; [10]): 0; pest or weed control at 63 g/ha (Amaranthus retroflexus; application rate 0.063 kg/ha): 85%; pest or weed control at 125 g/ha (Amaranthus retroflexus; application rate 0.125 kg/ha): 90%; Herbicidal activity (Oryza sativa; [12]): 20; Herbicidal activity (Oryza sativa; [13]): 10; pest or weed control at 31 g/ha (Chenopodium album; application rate 0.031 kg/ha): 85%; pest or weed control at 63 g/ha (Chenopodium album; application rate 0.063 kg/ha): 98%; pest or weed control at 125 g/ha (Chenopodium album; application rate 0.125 kg/ha): 90%
CN(c1cccc(C2=C(O)c3ncccc3C(C)(C)S2(=O)=O)c1S(C)(=O)=O)S(C)(=O)=O [I-34, N-[3-(8-hydroxy-5,5-dimethyl-6,6-dioxo-thiopyrano[4,3-b]pyridin-7-yl)-2-methylsulfonyl-phenyl]-N-methyl-methanesulfonamide] | – | – | – | – | – | – | – | – | – | – | – | – | – | – | – | – | – | 0 | 0 | 0 | Herbicidal activity (Zea mays; [10]): 15; pest or weed control at 31 g/ha (Amaranthus retroflexus; application rate 0.031 kg/ha): 90%; pest or weed control at 63 g/ha (Amaranthus retroflexus; application rate 0.063 kg/ha): 95%; pest or weed control at 125 g/ha (Amaranthus retroflexus; application rate 0.125 kg/ha): 98%; Herbicidal activity (Oryza sativa; [12]): 0; Herbicidal activity (Oryza sativa; [13]): 0; pest or weed control at 31 g/ha (Chenopodium album; application rate 0.031 kg/ha): 95%; pest or weed control at 63 g/ha (Chenopodium album; application rate 0.063 kg/ha): 98%; pest or weed control at 125 g/ha (Chenopodium album; application rate 0.125 kg/ha): 100%; pest or weed control at 125 g/ha (Echinocloa crus-galli; application rate 0.125 kg/ha): 70%
CN(c1cccc(C2=C(O)c3ncccc3CS2(=O)=O)c1C(F)(F)F)S(C)(=O)=O [I-35, N-[3-(8-hydroxy-6,6-dioxo-5H-thiopyrano[4,3-b]pyridin-7-yl)-2-(trifluoromethyl)phenyl]-N-methyl-methanesulfonamide] | – | – | – | – | – | – | – | – | – | – | – | – | – | – | – | – | – | 0 | 0 | 0 | Herbicidal activity (Zea mays; [10]): 0; pest or weed control at 63 g/ha (Amaranthus retroflexus; application rate 0.063 kg/ha): 75%; pest or weed control at 125 g/ha (Amaranthus retroflexus; application rate 0.125 kg/ha): 100%; Herbicidal activity (Oryza sativa; [12]): 15; Herbicidal activity (Oryza sativa; [13]): 25; pest or weed control at 31 g/ha (Chenopodium album; application rate 0.031 kg/ha): 95%; pest or weed control at 63 g/ha (Chenopodium album; application rate 0.063 kg/ha): 100%; pest or weed control at 125 g/ha (Chenopodium album; application rate 0.125 kg/ha): 100%; pest or weed control at 31 g/ha (Echinocloa crus-galli; application rate 0.031 kg/ha): 80%; pest or weed control at 63 g/ha (Echinocloa crus-galli; application rate 0.063 kg/ha): 90%; pest or weed control at 125 g/ha (Echinocloa crus-galli; application rate 0.125 kg/ha): 90%
CN(c1c(Cl)ccc(C2=C(O)c3ncc(F)cc3CS2(=O)=O)c1Cl)S(C)(=O)=O [I-37, N-[2,6-dichloro-3-(3-fluoro-8-hydroxy-6,6-dioxo-5H-thiopyrano[4,3-b]pyridin-7-yl)phenyl]-N-methyl-methanesulfonamide] | – | – | – | – | – | – | – | – | – | – | – | – | – | – | – | – | – | 0 | 0 | 0 | Herbicidal activity (Oryza sativa; [12]): 0; Herbicidal activity (Oryza sativa; [13]): 0; pest or weed control at 31 g/ha (Chenopodium album; application rate 0.031 kg/ha): 90%; pest or weed control at 63 g/ha (Chenopodium album; application rate 0.063 kg/ha): 90%; pest or weed control at 125 g/ha (Chenopodium album; application rate 0.125 kg/ha): 90%; pest or weed control at 31 g/ha (Echinocloa crus-galli; application rate 0.031 kg/ha): 90%; pest or weed control at 63 g/ha (Echinocloa crus-galli; application rate 0.063 kg/ha): 90%; pest or weed control at 125 g/ha (Echinocloa crus-galli; application rate 0.125 kg/ha): 95%
